Data taken from ChEMBL document CHEMBL1159161, “Synthesis and biological activities of truncated acridone: Structure-activity relationship studies of cytotoxic 5-hydroxy-4-quinolone” (Bioorg Med Chem Lett, 1997).

Assays:
Human alphaherpesvirus 2 = assay: Antiviral activity against herpes simplex virus-2.; format: functional, organism-based
Human alphaherpesvirus 1 = assay: Antiviral activity against herpes simplex virus-1.; format: functional, organism-based
HL-60 = assay: In vitro antitumor activity against HL60 (Human leukemia) cells.; format: functional, cell-based
L1210 = assay: In vitro antitumor activity against L1210 (murine leukemia) cells.; format: functional, cell-based; conditions: Mus musculus

| Compound | IC50 (Human alphaherpesvirus 2) [µM] | IC50 (Human alphaherpesvirus 1) [µM] | IC50 (HL-60) [µM] | IC50 (L1210) [µM] |
| --- | --- | --- | --- | --- |
| COc1ccc(OC)c2c(O)ccnc12 | > 100 | > 100 | > 30 | > 40 |
| COc1cc2nccc(O)c2cc1OC | > 100 | > 100 | > 30 | > 40 |
| COc1ccc2c(O)ccnc2c1 | > 100 | > 100 | > 30 | > 40 |
| COc1cc2c(c(O)c1OC)c(=O)ccn2C | > 100 | > 100 | > 30 | > 40 |
| COc1cc(OC)c2c(=O)ccn(C)c2c1 | > 100 | > 100 | > 30 | > 40 |
| COc1cc(OC)c2c(=O)cc[nH]c2c1 |  |  | > 30 | > 40 |
| COc1ccc(O)c2c(=O)ccn(C)c12 | > 100 | > 100 | > 30 | > 40 |
| COc1cc2nccc(O)c2c(O)c1OC | > 100 | > 100 | > 30 | > 40 |
| COc1ccc(C)c2nccc(O)c12 | > 100 | > 100 | > 30 | > 40 |
| COc1cc(C(F)(F)F)cc2nccc(O)c12 | > 100 | > 100 | > 30 | > 40 |
| Oc1cccc2nccc(O)c12 | 83 | 54 | > 30 | > 40 |
| COc1cc(C(F)(F)F)c2c(O)ccnc2c1 | 29.4 | 29.4 | > 30 | > 40 |
| COc1cc2nccc(O)c2c(OC)c1OC | > 100 | > 100 | > 30 | > 40 |
| COc1cc2c(c(OC)c1OC)c(=O)ccn2C | > 100 | > 100 | > 30 | > 40 |
| COc1ccc(O)c2c(O)ccnc12 | > 100 | 82.6 | 17.7 |  |
| COc1cc2c(O)ccnc2cc1O | > 100 | > 100 | > 30 | > 40 |
| COc1cc2c(=O)ccn(C)c2cc1OC | > 100 | > 100 | > 30 | > 40 |
| COc1cc(O)c2c(O)ccnc2c1 |  |  | > 30 | > 40 |
| COc1ccc(Cl)c2nccc(O)c12 | > 100 | > 100 | > 30 | > 40 |
| Oc1ccnc2cc(C(F)(F)F)cc(O)c12 |  |  | > 30 | > 40 |
| Cc1ccc(O)c2c(O)ccnc12 | > 100 | 27.1 | > 30 | > 40 |
| Nc1nc2c(ncn2COCCO)c(=O)[nH]1 [ACYCLOVIR] | 2.1 | 0.2 |  |  |
| Nc1ccn([C@@H]2O[C@H](CO)[C@@H](O)[C@@H]2O)c(=O)n1 [CYTARABINE] | 2 | 0.3 |  |  |
| COc1c(OC)c(OC)c2c(c1O)c(=O)c1ccc(O)c(OC)c1n2C [GLYFOLINE] |  |  | 1.4 | 26.5 |
